“And” between values parts separate entries of the source, which are not always exact repeats. Equal values may be shown once.
System: A. gambiae labellum ATP-sensitive receptor
Assay: Effects of metal ions on electrophysiological responses to ATP
Assay type: cell-based, Anopheles gambiae
Description: The tip recording method was used to record action potentials (spikes) from sensory cells in sensilla on A. gambiae labellum lobes.
Sensilla were exposed to test compounds and PR antagonists for ca. 2-4 s and spikes were counted in the first 2 s of recordings. Up to 4 test compounds were tested on a sensillum to evaluate potential agonists, each presented at 200 pM. To study responses as a function of dose for agonists ATP, adenosine, AMP, AMP-CPP and ATP+adenosine, up to 7 recordings were made at increasing doses of agonist from the same sensillum. […]
Pairwise comparisons of A. gambiae electrophysiological (EP) responses to ATP and adenosine alone and combined with a given dose of PR antagonist, EP responses to ATP alone and combined with a given dose of a metal modulator, and EP responses to ATP prior to and after exposure of a sensillum to a given dose of a PR antagonist were made with a one-tailed Wilcoxon signed-rank test for data showing a non-normal distribution, with a paired Student's t-test for normally distributed data showing homogeneous variance and with a Welch's t-test for normally distributed data showing non-homogeneous variance. […] Percent feeding inhibition induced by PR antagonists in A. stephensi was calculated using Abbott's formula.

## Nc1ncnc2c1ncn2[C@@H]1O[C@H](COP(=O)(O)OP(=O)(O)OP(=O)(O)O)[C@@H](O)[C@H]1O [ATP, Adenosine 5′-triphosphate]
100 pM ATP alone
  Mean no. of spikes per 2 s (±s.e.m.): 3 ± 1.67 spikes per 2 s
200 pM ATP alone
  Mean no. of spikes per 2 s (±s.e.m.): 24.8 ± 4.84 spikes per 2 s and 28.12 ± 3.5 spikes per 2 s

From patent US20250057791A1, “PROTECTION AGAINST ARTHROPOD PARASITES WITH PURINERGIC RECEPTOR (OPR) ANTAGONISTS” (priority 2021, published 2025)
